Experimental findings from patent US4621090A, “Antifungal compositions” (Toyo Soda Manufacturing Co., Ltd., priority 1983, dated 1986) are described below.

SMILES strings stand for the structures. Values after ≈ are worked out from the molar mass of the structure shown. Read-outs that look alike come from different tables or passages of the source.

In data set [1] the test system is Cryptococcus neoformans MTU-13002. The data set can be described thus: Growth inhibition test. In kind it is cell-based. To be noted: MTU13002, 48 h, read-out: Minimum inhibitory concentration.
The subject of data set [2] is Blastomyces dermatitidis MTU-17009. The data set can be described thus: Growth inhibition test. To be noted: MTU17009, 336 h, read-out: Minimum inhibitory concentration. It counts as cell-based.
Data set [3] has as its system Histoplasma capsulatum MTU-16001. The data set can be described thus: microbe, parasite or virus in culture. It counts as cell-based. As to conditions: MTU16001, 336 h, read-out: Minimum inhibitory concentration.
Data set [4] has as its system Trichophyton mentagraphytes. The experiment in a line: Medical treatment of guinea pigs experimentally infected with Trichophyton mentagraphytes. To be noted: 1% emulsion once a day; for Scope of symptoms (0-4): mean of 6 guinea pigs; for Reversed cultivation: skin cut into 10 pieces, cultivated 14 days at 27° C.
Data set [5] deals with Phialophora verrucosa MTU-23001. The experiment in a line: Growth inhibition test. In kind it is cell-based. To be noted: read-out: Minimum inhibitory concentration.
Data set [6] concerns ICR mice. The data set can be described thus: Skin irritation test using ICR mice. It counts as in vivo. As to conditions: Cutaneous, 1% direct application once a day for 14 consecutive days.
The test system of data set [7] is ICR mice. The data set can be described thus: Acute toxicity test using ICR mice. It counts as in vivo. As for the experimental part: The acute toxicity was tested by applying active ingredients of the antifungal compositions of this invention as shown in Table 4 to ICR mice (male, age-5 weeks, 25 g ±weight, 5 mice in each group). Observation continued for 3 more weeks starting from the last administration.

In data set [8] the test system is Microsporum canis MTU-20010. The data set can be described thus: Growth inhibition test. To be noted: read-out: Minimum inhibitory concentration. In kind it is cell-based.
The test system of data set [9] is Trichophyton mentagraphytes MTU-19031. The experiment in a line: Minimum inhibitory concentration, anti-Trichophyton mentagraphytes activity test, strain MTU-19031. In kind it is cell-based. To be noted: Trichophyton, MTU19031, Sabouraud's dextrose agar, 27° C., a week. As for the experimental part:
(§1) The activity was tested by the 10 time-step dilution test, using the Sabouraud's dextrose agar culture medium (2% dextrose, 1% pepton and 1.5% agar; pH 6.5±). A platinum loopful (about 10 μl) spore suspension (prepared from a reserved strain of Trichlophyton mentagraphytes and containing 1×10^6 cells/ml) was applied in the form of drawn lines on a plate of a culture medium containing the active ingredients. The culture medium plate was kept at 27° C. for a week and then visually observed to see if any colonies had formed. The minimum inhibitory concentration was defined as the minimum concentration with which formation of distinct colonies on the culture medium plate was not observed.

Data set [10] has as its system Epidermophyton floccosum MTU-21007. The experiment in a line: Growth inhibition test. As to conditions: MTU21007, 336 h, read-out: Minimum inhibitory concentration. It counts as cell-based.
In data set [11] the test system is Aspergillus niger MTU-06051. The experiment in a line: Growth inhibition test. It counts as cell-based. As to conditions: read-out: Minimum inhibitory concentration.
In data set [12] the test system is Microsporum gypseum MTU-20005. The experiment in a line: Growth inhibition test. It counts as cell-based. To be noted: Nannizzia gypsea, read-out: Minimum inhibitory concentration.
Data set [13] has as its system Fonsecaea compactum MTU-22023. The data set can be described thus: Growth inhibition test. In kind it is cell-based. As to conditions: Fonsecaea compacta, read-out: Minimum inhibitory concentration.
Data set [14] relates to Trichophyton violaceum MTU-19021. The data set can be described thus: Growth inhibition test. It counts as cell-based. To be noted: read-out: Minimum inhibitory concentration.
The test system of data set [15] is Trichophyton mentagraphytes MTU-19024. The data set can be described thus: Minimum inhibitory concentration, anti-Trichophyton mentagraphytes activity test, strain MTU-19024. In kind it is cell-based. As to conditions: Trichophyton, MTU19024, Sabouraud's dextrose agar, 27° C., a week. How it is done:
as §1

Data set [16] relates to Aspergillus fumigatus MTU-06002. The experiment in a line: Growth inhibition test. In kind it is cell-based. To be noted: MTU06002, 168 h, read-out: Minimum inhibitory concentration.
The subject of data set [17] is Fusarium pedrosoi MTU-22009. The data set can be described thus: Growth inhibition test. As to conditions: MTU22009, 168 h, after 7 days cultivation at 27° C., read-out: Minimum inhibitory concentration. In kind it is cell-based.
Where [18] appears, read: Intraperitoneal, 100 mg/kg once a day for 6 consecutive days.
The mark [19] stands for this setting: Intraperitoneal, 500 mg/kg once.
[20] abbreviates: Oral, 500 mg/kg once a day for 6 consecutive days.
Where [21] appears, read: after 14 days cultivation at 27° C.
Where [22] appears, read: MTU20010, 168 h, after 7 days cultivation at 27° C.
Where [23] appears, read: MTU20010, 336 h, after 14 days cultivation at 27° C.
The mark [24] stands for this setting: MTU20005, 168 h, after 7 days cultivation at 27° C.
The mark [25] stands for this setting: MTU20005, 336 h, after 14 days cultivation at 27° C.
[26] abbreviates: MTU19021, 168 h, after 7 days cultivation at 27° C.
Where [27] appears, read: MTU19021, 336 h, after 14 days cultivation at 27° C.

As for `COc1cccc(N(C)C(=S)Oc2ccc3c(c2)CCCC3)n1` [compound 11, O--5,6,7,8-Tetrahydro-2-naphthyl N--N--(6-methoxy-2-pyridyl)-N--methylthiocarbamate], the MIC in [1] worked out at 0.5 µg/mL (≈ 1.52 µM); in data set [2] it was 0.5 µg/mL (≈ 1.52 µM); in data set [3] it was 0.5 µg/mL (≈ 1.52 µM); in data set [5] (MTU23001, 168 h) it was 0.5 µg/mL (≈ 1.52 µM); in data set [5] (MTU23001, 336 h) it was 0.5 µg/mL (≈ 1.52 µM); in data set [8] (MTU20010, 168 h), 0.05 µg/mL (≈ 0.152 µM). Further, the MIC in [8] (MTU20010, 336 h) was found to be 0.05 µg/mL (≈ 0.152 µM); in data set [9], 0.05 µg/mL (≈ 0.152 µM); in data set [10] it was 0.05 µg/mL (≈ 0.152 µM); in [11] (MTU06051, 168 h), 0.05 µg/mL (≈ 0.152 µM); in data set [11] (MTU06051, 336 h), 0.05 µg/mL (≈ 0.152 µM); in [12] (MTU20005, 168 h) it was 0.5 µg/mL (≈ 1.52 µM). Further, the MIC is 0.05 µg/mL (≈ 0.152 µM) in data set [12] (MTU20005, 336 h); 0.5 µg/mL (≈ 1.52 µM) in data set [13] (MTU22023, 168 h); 0.5 µg/mL (≈ 1.52 µM) in [13] (MTU22023, 336 h); 0.05 µg/mL (≈ 0.152 µM) in [14] (MTU19021, 168 h); 0.05 µg/mL (≈ 0.152 µM) in data set [14] (MTU19021, 336 h); 0.05 µg/mL (≈ 0.152 µM) in data set [15]. Further, in data set [16], the MIC turned out to be 0.5 µg/mL (≈ 1.52 µM). The “Scope of symptoms (0-4)” value is recorded as 0.66 in [4] (5 days after the infection); 2.0 in data set [4] (9 days after the infection); 2.0 in [4] (13 days after the infection); 0 in [4] (17 days after the infection); 0 in [4] (21 days after the infection). The Reversed cultivation in [4] is given as 1/60. In addition, the “Number of skin irritation symptoms” value in the data set with ICR mice [6] came out at 0. For the same compound, the Number of deaths with ICR mice [7] (setting [18]), with ICR mice [7] (setting [19]) and in the data set on ICR mice [7] (setting [20]) was 0 each time. Moreover, the “Number of symptomatic weight decrease” value in the data set on ICR mice [7] (setting [18]), in the data set with ICR mice [7] (setting [19]) and in the data set with ICR mice [7] (setting [20]) was 0 in each case.
Turning to `COc1cccc(N(C)C(=S)Oc2ccc3ccccc3c2)n1` [compound 7, O--2-Naphthyl N--methyl-N--(6-methoxy-2-pyridyl)thiocarbamate], the MIC is 0.05 µg/mL (≈ 0.154 µM) in data set [1] (after 2 days cultivation at 27° C.); 0.5 µg/mL (≈ 1.54 µM) in data set [2] (setting [21]); 0.5 µg/mL (≈ 1.54 µM) in data set [3]; 0.5 µg/mL (≈ 1.54 µM) in data set [5] (MTU23001, 168 h, after 7 days cultivation at 27° C.); 0.5 µg/mL (≈ 1.54 µM) in [5] (MTU23001, 336 h, after 14 days cultivation at 27° C.); 0.5 µg/mL (≈ 1.54 µM) in data set [17]. Also, the MIC in data set [8] (setting [22]) worked out at 0.05 µg/mL (≈ 0.154 µM); in data set [8] (setting [23]), 0.05 µg/mL (≈ 0.154 µM); in data set [9] it was 0.05 µg/mL (≈ 0.154 µM); in [10] (setting [21]) it was 0.05 µg/mL (≈ 0.154 µM); in data set [11] (MTU06051, 168 h, after 7 days cultivation at 27° C.), 0.05 µg/mL (≈ 0.154 µM); in [11] (MTU06051, 336 h, after 14 days cultivation at 27° C.), 0.05 µg/mL (≈ 0.154 µM). The MIC in data set [12] (setting [24]) was 0.05 µg/mL (≈ 0.154 µM); in data set [12] (setting [25]), 0.05 µg/mL (≈ 0.154 µM); in data set [13] (MTU22023, 168 h, after 7 days cultivation at 27° C.), 0.5 µg/mL (≈ 1.54 µM); in data set [13] (MTU22023, 336 h, after 14 days cultivation at 27° C.), 0.5 µg/mL (≈ 1.54 µM); in [14] (setting [26]), 0.05 µg/mL (≈ 0.154 µM); in [14] (setting [27]), 0.05 µg/mL (≈ 0.154 µM). Moreover, the values for the MIC in data set [15] and in data set [16] (after 7 days cultivation at 27° C.) were 0.05 µg/mL (≈ 0.154 µM) and 0.5 µg/mL (≈ 1.54 µM), respectively. The “Scope of symptoms (0-4)” value in data set [4] (5 days after the infection) is reported as 0; in [4] (9 days after the infection), 1.33; in data set [4] (13 days after the infection), 1.66; in [4] (17 days after the infection) it was 0.66; in [4] (21 days after the infection), 0.33. For the same compound, the Reversed cultivation in data set [4] is 1/60. Besides, the “Number of skin irritation symptoms” value in the data set with ICR mice [6] worked out at 0. The Number of deaths in the data set with ICR mice [7] (setting [18]), with ICR mice [7] (setting [19]) and in the data set on ICR mice [7] (setting [20]) was 0 each time. The “Number of symptomatic weight decrease” value with ICR mice [7] (setting [18]), in the data set on ICR mice [7] (setting [19]) and with ICR mice [7] (setting [20]) was 0 each time.
As for `COc1cccc(N(C)C(=S)Oc2cccc(C(C)C)c2)n1` [compound 48, O--3-Isopropylphenyl N--(6-methoxy-2-pyridyl)-N--methylthiocarbamate], the MIC in data set [8] (setting [22]), in data set [8] (setting [23]), in data set [9], in data set [10] (setting [21]), in [12] (setting [24]) and in data set [12] (setting [25]) was 0.5 µg/mL (≈ 1.58 µM) in each case. For the same compound, the MIC in data set [14] (setting [26]), in [14] (setting [27]) and in data set [15] was 0.5 µg/mL (≈ 1.58 µM) throughout.
Turning to `Cc1cccc(N(C)C(=S)Oc2ccc3ccccc3c2)n1` [Compound No. 2, O-2-Naphthyl N-methyl-N-(6-methyl-2-pyridyl)thiocarbamate], the MIC in data set [9] and in [15] was 0.5 µg/mL (≈ 1.62 µM) each time.
For `COc1cccc(N(C)C(=S)Oc2ccc(SC)c(C)c2)n1` [compound 67, O--3-Methyl-4-methylthiophenyl N--(6-methoxy-2-pyridyl)-N--methylthiocarbamate], the MIC in data set [9] and in [15] was 0.5 µg/mL (≈ 1.49 µM) each time.
Regarding `COc1cccc(N(C)C(=S)Oc2cccc(C(C)(C)C)c2)n1` [compound 28, O--3-t-Butylphenyl N--(6-methoxy-2-pyridyl)-N--methylthiocarbamate], the MIC in data set [8] (setting [22]), in [8] (setting [23]), in data set [9], in data set [10] (setting [21]), in [12] (setting [24]) and in [12] (setting [25]) was 0.5 µg/mL (≈ 1.51 µM) throughout. The MIC in [14] (setting [26]), in [14] (setting [27]) and in [15] was 0.5 µg/mL (≈ 1.51 µM) throughout.
Take `COc1cccc(N(C)C(=S)Oc2ccc(C(C)(C)C)cc2)n1` [compound 16, O--4-t-Butylphenyl N--(6-methoxy-2-pyridyl)-N--methylthiocarbamate]: the MIC in [9] and in data set [15] was 0.5 µg/mL (≈ 1.51 µM) each time.
Take `Cc1ccc(N(C)C(=S)Oc2ccc3c(c2)CCCC3)nc1C` [compound 27, O--5,6,7,8-Tetrahydro-2-naphthyl N--methyl-N--(5,6-dimethyl-2-pyridyl)-thiocarbamate]: the MIC in data set [9] and in data set [15] was 0.5 µg/mL (≈ 1.53 µM) throughout.
